Assays:
[1] = Root uptake test with radioactively marked boscalid, drench of wheat plants in vermiculite; conditions: in vivo, 120 h
Method: To test the root systemicity of the ai, radioactively marked boscalid (prepared in analogy to EP 0545099 based on ^14C marked pyridin) was used. For the tests wheat plants in vermiculite were drenched with boscalid/polymer solutions in water/acetone mixtures. As reference boscalid solutions in water/acetone mixtures without polymers were used [25 μl cold active solution (10000 ppm stock solution in acetone), 20 μl hot active solution (0.1 ppm in acetone, 1 μl corresponds to ˜22000 Bcq), 25 μl acetone and 25 μl polymer solution (10000 ppm stock solution in water) were mixed and refilled with water to 10 ml. After 48 and 120 hours leafs were cut from the plant and dissolved in Soluene 350 (60-80% toluene, 20-40% dodecyl(dimethyl)(tetradecyl)ammonium hydroxide, 2.5-10% methanol). Afterwards the radioactivity in the plant material was measured. High radioactivity in the plant material corresponds to high active ingredient uptake.

[2] = Leaf uptake of radioactively marked boscalid applied dropwise to leaves of wheat plants; conditions: in vivo, 168 h
Method: To test the leaf uptake with polymers water/DMF solutions with radioactively marked boscalid (1 μl cold active solution (10000 ppm solution in DMF), 10 μl hot active solution (0.1 ppm in DMF, ˜2000000 counts/μl), 9 μl polymer solution (1000 ppm solution in water) and 80 μl DMF) were applied dropwise to the leaves of a wheat plants (10 drops per leap. After 48 and 168 hours respectively. The leaves were cut off after the respective time and the excess active on the leaf surface eliminated by stripping the leaf with a cellulose acetate film. The leaves were then dissolved with Soluene 350 to determine the absolute amount of active ingredient that was taken up into the plant. As reference the active was applied in water/DMF solution without polymer.

[3] = system: Alteria, ALTESO P6 (Bayer); assay: Test with pathogenes: tomatoe plants in Hoagland solution with boscalid or boscalid/polymer, infested with fungus; format: in vivo; conditions: for Infestation Rating: Table 3 experiment, untreated = 100%; for Rating (infestation): Table 4 experiment
Excerpt: To test the polymers with the actual pathogenes, tomatoe plants were directly grown in hoagland solution. Hoagland solution consists of the following ingredients 0.25 v % of 1M KNO3 solution in water, 0.1 v % of 1M MgSO4 solution in water, 0.05 v % of 1M KH2PO4 solution in water, 0.25 v % 1M Ca(NO3)2) solution in water, 0.05 v % of a trace solution consisting of 2.86 g/l H3BO3, 1.81 g/l MnCl2*4H2O, 0.22 g/l ZnSO4*7H2O, 0.08 g/l CuSO4*5H2O, 0.016 g/l MoO3 in water, 0.075 v % Sequestrene 138 Fe consisting of 30 g/l sodium ferric ethylenediamine di-(o-hydroxyphenylacetate) in water, 99.225 v % water sterilized and pH adjusted to 6-6.5 with NaOH.
After 16 days the plants were transfered to containers with 240 ml boscalid or boscalid/polymer (the ratio boscalid/polymer is 1:1 per weight) solutions (1.3, 0.43, 0.14 and 0.05 ppm) in Hoagland solution containing 0.8 vol % acetone. 6 days after the ai application the plants were infested with fungus (Alteria, ALTESO P6 (Bayer)). After 5 additional days the infestation was rated (column “Infestation Rating”) and plants that had not been treated with ai were used as reference for 100% infestation.
Two separate experiments were performed. In one test, polymers A and B were tested (see table 3), in the other experiment, polymers C and F were tested (see table 4).

[4] = 0.05 ppm active (or polymer/active 1:1)
[5] = 0.14 ppm active (or polymer/active 1:1)
[6] = 0.43 ppm active (or polymer/active 1:1)

## O=C(Nc1ccccc1-c1ccc(Cl)cc1)c1cccnc1Cl [Reference without polymer, boscalid]
[1]
  Uptake (radioactivity in leaf material, active ingredient uptake): 219 Bcq
[2]
  Uptake [% applied]: 1.3 % applied
[3]; [4]
  Infestation Rating: 77%
  Rating (infestation): 53%
[3]; [5]
  Infestation Rating: 60%
  Rating (infestation): 47%
[3]; [6]
  Infestation Rating: 13%
  Rating (infestation): 17%
[3]; 1.3 ppm active (or polymer/active 1:1), rated 5 days after infestation
  Infestation Rating: 1%
[3]; 1.3 ppm active (or polymer/active 1:1)
  Rating (infestation): 0%
